What was measured:
Settings in all cases: 72 h
[1] = test system: K-562
How it was run: (§1)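 The IC50 was read from log-logistic dose–response fits. Fifteen myeloid leukaemia lines were exposed for 72 h at 37 °C with 5% CO2 to five tenfold doses from 1 to 10,000 nM in duplicate. ATP luminescence, normalised to vehicle and to a 10 µM positive control, was fitted with four parameters.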

[2] = test system: KU-812
How it was run: as §1

[3] = test system: MV4-11
How it was run: as §1

[4] = test system: Mono-Mac-6
How it was run: as §1

[5] = test system: NOMO-1
How it was run: as §1

[6] = test system: HL-60; test: cell viability (% survival relative to DMSO control); higher = less cytotoxic
How it was run: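 Four-parameter log-logistic fits in drc and PharmacoGx supplied area under the curve where it is given. Underlying viability came from CellTiter-Glo, normalised to DMSO and proteasome-inhibitor wells, with the proteasome inhibitor at 10 μM. HL-60 cells in RPMI 1640 plus 10% FBS had been rescreened against the full library at five tenfold concentrations of 1–10,000 nM, in duplicate on 384-well plates, with DMSO or 100 nM of one of three metabolic inhibitors, for 72 h at 37 °C, 5% CO2.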

[7] = test system: BV-173; test: cell viability (% survival relative to DMSO control, bortezomib = 0%); higher = less cytotoxic
How it was run: (§2)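 Fifteen myeloid leukaemia cell lines (10 AML, 5 CML) were seeded at a density titrated to the linear growth range. They went into 384-well plates with compounds pre-printed at 1, 10, 100, 1000 or 10000 nM in duplicate. After 72 h at 37 °C with 5% CO2, viability was read by CellTiter-Glo luminescence. Values are percent survival, with vehicle set to 100% and a 10 µM positive control to 0%, averaged over the duplicates.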

[8] = test system: HEL; test: as above
How it was run: as §2

[9] = test system: HL-60; test: as above
How it was run: as §2

[10] = test system: K-562; test: as above
How it was run: as §2

[11] = test system: KCL-22; test: as above
How it was run: as §2

[12] = test system: KG-1; test: as above
How it was run: as §2

[13] = test system: KU-812; test: as above
How it was run: as §2

[14] = test system: LAMA-84; test: as above
How it was run: as §2

[15] = test system: ML-2; test: as above
How it was run: as §2

[16] = test system: MOLM-13; test: as above
How it was run: as §2

[17] = test system: MV4-11; test: as above
How it was run: as §2

[18] = test system: Mono-Mac-6; test: as above
How it was run: as §2

[19] = test system: NOMO-1; test: as above
How it was run: as §2

[20] = test system: SHI-1; test: as above
How it was run: as §2

[21] = test system: THP-1; test: as above
How it was run: as §2

CCOP(=O)(OCC)C(=Cc1cc(C(C)(C)C)c(O)c(C(C)(C)C)c1)P(=O)(OCC)OCC
Settings | IC50 (cell viability) [µM]
[1] | > 10
[2] | > 10
[3] | > 10
[4] | 6.9
[5] | > 10

cell viability [%], [6]
Settings | 0.001 µM | 0.01 µM | 0.1 µM | 1 µM | 10 µM
co-treatment: AZD3965 100 nM | 95.9 | 101 | 109 | 101 | 98
co-treatment: DMSO vehicle | 100 | 105 | 99.5 | 104 | 105
co-treatment: GSK2194069 100 nM | 101 | 104 | 102 | 102 | 94.5
co-treatment: pictilisib 100 nM | 96.4 | 99.31 | 107 | 94.9 | 103

cell viability [%]
Settings | 1 nM | 10 nM | 100 nM | 1000 nM | 10000 nM
[7] | 92.7 | 96.8 | 121 | 89.9 | 64.5
[8] | 92.1 | 95.8 | 109 | 89.8 | 108
[9] | 93.9 | 94.9 | 159 | 65.9 | 83.4
[10] | 91.1 | 90.4 | 118 | 101 | 90.1
[11] | 98.7 | 108 | 125 | 108 | 94
[12] | 96.3 | 91.2 | 121 | 91.2 | 67
[13] | 98.4 | 92.3 | 123 | 85.5 | 73.6
[14] | 94.8 | 99.1 | 114 | 97.6 | 94.1
[15] | 95.1 | 98.1 | 134 | 78.9 | 80
[16] | 76 | 81.8 | 122 | 88.9 | 86.5
[17] | 94.2 | 90.7 | 117 | 104 | 82
[18] | 93.3 | 99.4 | 129 | 75.2 | 57.6
[19] | 97 | 99.1 | 118 | 91.4 | 93.4
[20] | 100 | 89.7 | 123 | 94.9 | 98.5
[21] | 96.7 | 98.1 | 115 | 83.9 | 85.1

O=C(O)CCCCC(CCSCc1ccccc1)SCc1ccccc1 (stereo not given) [CPI-613]
Settings | IC50 (cell viability) [µM]
[1] | > 10
[2] | > 10
[3] | > 10
[4] | > 10
[5] | > 10

cell viability [%], [6]
Settings | 0.001 µM | 0.01 µM | 0.1 µM | 1 µM | 10 µM
co-treatment: AZD3965 100 nM | 102 | 97.3 | 98.6 | 104 | 105
co-treatment: DMSO vehicle | 98.6 | 101 | 95.2 | 103 | 108
co-treatment: GSK2194069 100 nM | 97.55 | 101 | 89.4 | 104 | 107.3
co-treatment: pictilisib 100 nM | 105 | 98.8 | 88.5 | 103 | 107

cell viability [%]
Settings | 1 nM | 10 nM | 100 nM | 1000 nM | 10000 nM
[7] | 89 | 97.3 | 91.1 | 94.4 | 93.8
[8] | 109 | 91 | 106 | 103 | 73.8
[9] | 107 | 111 | 110 | 87.9 | 101
[10] | 94 | 90.4 | 102 | 89.2 | 107
[11] | 110 | 108 | 105 | 115 | 97.2
[12] | 92.4 | 99.7 | 103 | 96.5 | 93.6
[13] | 98.9 | 94.3 | 99.6 | 105 | 89.7
[14] | 106 | 98.3 | 96.5 | 96.8 | 97.5
[15] | 89.7 | 94.3 | 103 | 98.2 | 95.8
[16] | 93.6 | 99 | 98.5 | 75.5 | 94.5
[17] | 107 | 90.5 | 96.6 | 93 | 105
[18] | 92.8 | 86.9 | 96.3 | 94.2 | 96.3
[19] | 101 | 95.2 | 98.2 | 100 | 97.2
[20] | 89.9 | 110 | 108 | 95.8 | 107
[21] | 102 | 90.1 | 96.2 | 93.7 | 97.3

N#CC(C#N)=NNc1ccc(OC(F)(F)F)cc1 [FCCP]
Settings | IC50 (cell viability) [µM]
[1] | 1.73
[2] | 1.39
[3] | 2.44
[4] | 2.38
[5] | 3.01

cell viability [%], [6]
Settings | 0.001 µM | 0.01 µM | 0.1 µM | 1 µM | 10 µM
co-treatment: AZD3965 100 nM | 101 | 102 | 82.8 | 110 | 8.55
co-treatment: DMSO vehicle | 99.6 | 94.6 | 99.9 | 104 | 10.3
co-treatment: GSK2194069 100 nM | 97.2 | 102 | 80.2 | 102.3 | 13.8
co-treatment: pictilisib 100 nM | 98.3 | 98.5 | 94.6 | 104 | 9.69

cell viability [%]
Settings | 1 nM | 10 nM | 100 nM | 1000 nM | 10000 nM
[7] | 119 | 94.9 | 96.7 | 82 | -0.482
[8] | 120 | 94.1 | 92.7 | 79.9 | 1.52
[9] | 88.2 | 92.4 | 109 | 88.5 | 0.501
[10] | 109 | 93.4 | 92.1 | 74 | 1.97
[11] | 110 | 83.6 | 85.8 | 68.3 | 4.51
[12] | 101 | 101 | 94.7 | 80.8 | 7.07
[13] | 108 | 98 | 92.4 | 65.7 | 0.082
[14] | 100 | 97.6 | 94.2 | 79.1 | 0.398
[15] | 104 | 96.5 | 105 | 82.3 | 0.124
[16] | 121 | 92.6 | 99.3 | 82.7 | 0.459
[17] | 104 | 101 | 98.9 | 88.5 | -1.01
[18] | 100 | 92 | 96.1 | 82.8 | 3.03
[19] | 100 | 105 | 102 | 93.5 | 4.3
[20] | 94.6 | 103 | 101 | 91.5 | 35.1
[21] | 104 | 94.3 | 102 | 102 | 7.73

NS(=O)(=O)c1ccc([N+](=O)[O-])cc1 [4-Nitrobenzenesulfonamide]
Settings | IC50 (cell viability) [µM]
[1] | > 10
[2] | > 10
[3] | > 10
[4] | > 10
[5] | > 10

cell viability [%], [6]
Settings | 0.001 µM | 0.01 µM | 0.1 µM | 1 µM | 10 µM
co-treatment: AZD3965 100 nM | 91.2 | 100.8 | 103 | 97.7 | 90.6
co-treatment: DMSO vehicle | 92.3 | 96.5 | 104 | 104 | 100
co-treatment: GSK2194069 100 nM | 96.7 | 96.8 | 100.73 | 102 | 98.17
co-treatment: pictilisib 100 nM | 105 | 98.6 | 101 | 99.4 | 91.7

cell viability [%]
Settings | 1 nM | 10 nM | 100 nM | 1000 nM | 10000 nM
[7] | 101 | 95 | 105 | 97.8 | 86.1
[8] | 105 | 98.7 | 105 | 99.6 | 96.3
[9] | 106 | 111 | 110 | 99.8 | 108
[10] | 103 | 105 | 97.1 | 94.8 | 100
[11] | 103 | 101 | 103 | 93.1 | 91.1
[12] | 107 | 101 | 92.4 | 96.1 | 92.3
[13] | 102 | 95.7 | 105 | 98.1 | 93
[14] | 99.5 | 95.1 | 103 | 95.4 | 98.6
[15] | 103 | 111 | 97.3 | 102 | 89.6
[16] | 91.3 | 92.3 | 95.4 | 110 | 107
[17] | 102 | 93.4 | 115 | 94.3 | 114
[18] | 101 | 97.3 | 98.1 | 111 | 89.8
[19] | 101 | 105 | 98.5 | 103 | 98.3
[20] | 102 | 90.7 | 102 | 100 | 93.8
[21] | 111 | 101 | 100 | 104 | 90.7

COc1ccc(CNC(=O)Nc2ncc([N+](=O)[O-])s2)cc1
Settings | IC50 (cell viability) [µM]
[1] | > 10
[2] | > 10
[3] | > 10
[4] | > 10
[5] | > 10

cell viability [%], [6]
Settings | 0.001 µM | 0.01 µM | 0.1 µM | 1 µM | 10 µM
co-treatment: AZD3965 100 nM | 99.1 | 97.6 | 102 | 91.4 | 95.2
co-treatment: DMSO vehicle | 103 | 94.7 | 99.35 | 102 | 107
co-treatment: GSK2194069 100 nM | 89.7 | 81 | 106 | 86.5 | 116
co-treatment: pictilisib 100 nM | 84 | 103 | 106 | 96.3 | 105

cell viability [%]
Settings | 1 nM | 10 nM | 100 nM | 1000 nM | 10000 nM
[7] | 91.7 | 100 | 101 | 97.7 | 92.7
[8] | 111 | 98 | 113 | 108 | 109
[9] | 108 | 101 | 115 | 95.6 | 104
[10] | 85.6 | 103 | 108 | 89.4 | 97.7
[11] | 106 | 97.7 | 104 | 102 | 79.7
[12] | 90.5 | 146 | 93.8 | 94.8 | 173
[13] | 97.8 | 107 | 92.1 | 96.7 | 122
[14] | 109 | 105 | 110 | 104 | 108
[15] | 91.8 | 101 | 107 | 105 | 104
[16] | 99.8 | 108 | 97.8 | 102 | 105
[17] | 101 | 99.1 | 108 | 94.7 | 90.6
[18] | 96 | 98 | 96.7 | 91.3 | 70.2
[19] | 108 | 97.1 | 97.9 | 106 | 99.5
[20] | 105 | 101 | 103 | 106 | 89.8
[21] | 101 | 101 | 104 | 105 | 99.1

Source: the supplement of paper PMC8671470
